Source: PubChem BioAssay (NCI)
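In this assay, cells in 96-well plates receive the compound at five concentrations for 48 hours. Endpoints are linearly interpolated between the surrounding concentrations. TGI: concentration producing complete growth inhibition.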

What was measured:
Assay in all cases: inhibition of tumour cell growth, NCI panel, 48 h
[1] = system: M14 melanoma
[2] = system: SW-620 colon
[3] = system: MDA-MB-435
[4] = system: NCI-H522 lung
[5] = system: NCI-H226 lung
[6] = system: HS 578T breast
[7] = system: OVCAR-3 ovarian
[8] = system: SK-MEL-5 melanoma
[9] = system: COLO 205 colon
[10] = system: LOX IMVI melanoma
[11] = system: OVCAR-5 ovarian

| Structure (SMILES) | TGI [1] [µM] | TGI [2] [µM] | TGI [3] [µM] | TGI [4] [µM] | TGI [5] [µM] | TGI [6] [µM] | TGI [7] [µM] | TGI [8] [µM] | TGI [9] [µM] | TGI [10] [µM] | TGI [11] [µM] |
| --- | --- | --- | --- | --- | --- | --- | --- | --- | --- | --- | --- |
| O=c1c2ccccc2nc(N/N=C/c2ccccc2O)n1-c1ccccc1 | > 100 | > 100 | > 100 | 74.7 | > 100 | 39.5 | 17.2 | > 100 | > 100 | > 100 | > 100 |
| CC(=O)c1c2n(n(-c3ccccc3)c1=O)C(=O)c1nccnc1-2 | > 100 | > 100 | > 100 | > 100 | > 100 | > 100 | > 100 | > 100 | > 100 | > 100 | > 100 |
| C=CCn1c(-c2ccc([N+](=O)[O-])cc2)csc1=N | > 100 | > 100 | > 100 | > 100 | > 100 | > 100 | > 100 | > 100 | > 100 | 70.5 | > 100 |
| CC(C)(C)[Si](C)(C)OCC1OC(n2cnc3c(=O)[nH]c(N)nc32)C(O[Si](C)(C)C(C)(C)C)C1O[Si](C)(C)C(C)(C)C (stereo unspecified) | 2.89 | > 20.4 | 2.88 | 3.61 | 6.79 | 7.65 | 3.56 | 1.77 | 3.2 | > 19.7 | 5.79 |
| C[N+](C)(CCNC(=O)c1cccc2cc3ccccc3nc12)Cc1ccc([N+](=O)[O-])s1 | > 25 | > 25 | > 25 | > 25 | > 25 | > 25 | > 25 | > 25 | > 25 | > 25 | > 25 |
| Cn1c(O)c(C=Nc2ccccc2Cl)c(=O)n(C)c1=O | 48.9 | > 100 | > 100 | > 100 | > 100 | > 100 | 49.5 | > 100 | > 100 | 32.2 | 63.2 |
